How the values were obtained:
U2OS cells [1] = details: known/described effect; cited from earlier work
U2OS cells [2] = experiment: Measurement of drug effects on cell cycle using acid lysis method (DNA content by DAPI image cytometry); format: cell-based, human; details: drug treatment for 20 hours, Nucleocounter NC-3000 (FIG. 5)
Method: U2OS cells were grown in RPMI+10% FCS to approximately 75% confluency in 6-well plates (Nunclon surface, Nunc) and then treated with the following drugs for 20 hours:
After drug treatment each of the wells was washed once with 1 mL of PBS and then incubated with 0.25 ml of lysis buffer (100 mM citrate buffer (pH 2.25), 0.5% Triton X-100, 5 μg/ml DAPI) for 5 minutes at 37° C. Prior to quantitative image cytometry (Nucleocounter NC-3000), the samples were neutralized by adding 0.25 ml stabilization buffer (500 mM citrate, pH 8.3).

Row | Structure (SMILES) | known effect of the drug on the cell cycle (arrest phase) (U2OS cells [1]) | cell cycle distribution (DNA content histogram) (U2OS cells [2])
1 | NC(=O)NO [Hydroxyurea] | 3. Hydroxyurea, HU (S arrest): | 
2 | N[C@@H](Cn1ccc(=O)c(O)c1)C(=O)O [L-mimosine] | 2. L-mimosine (G1 arrest): | predominantly G1 peak
3 | CC[C@@]1(O)C(=O)OCc2c1cc1n(c2=O)Cc2cc3ccccc3nc2-1 [Camptothecin] | 4. Camptothecin, CRT (S-G2 arrest): | accumulation of S-G2 cells
4 | COc1cc([C@@H]2c3cc4c(cc3[C@@H](O[C@@H]3O[C@@H]5CO[C@@H](C)O[C@H]5[C@H](O)[C@H]3O)[C@H]3COC(=O)[C@H]23)OCO4)cc(OC)c1O [Etoposide] | 5. Etoposide (S-G2 arrest): | 
5 | COC(=O)Nc1nc2ccc(C(=O)c3cccs3)cc2[nH]1 [Nocodazole] | 1. Nocodazole (G2-M arrest): | 
